Laboratory results taken from patent US12152020B2, “Pesticidally active azole-amide compounds” (SYNGENTA PARTICIPATIONS AG, priority 2018, dated 2024).

Key:
Format in all cases: in vivo
[1] = tested on: Plutella xylostella (Diamond Back Moth); experiment: Example B5: Plutella xylostella, artificial diet in 24-well plates, eggs; settings: 192 h, application rate of 200 ppm, 8 days after infestation, in comparison to untreated samples, read-out: effect in at least one of the two categories (mortality or growth inhibition)
Procedure: Example B5: Plutella xylostella (Diamond Back Moth)
24-well microtiter plates with artificial diet were treated with aqueous test solutions prepared from 10′000 ppm DMSO stock solutions by pipetting. After drying, Plutella eggs were pipetted through a plastic stencil onto a gel blotting paper and the plate was closed with it. The samples were assessed for mortality and growth inhibition in comparison to untreated samples 8 days after infestation.
The following compounds gave an effect of at least 80% in at least one of the two categories (mortality or growth inhibition) at an application rate of 200 ppm: • P1, P2, P3, P4, P5, P7, P8, P9, P14, P15, P16, P17, P18, P21, P22, P23, P24, P25, P27, P28, P29, P30, P31, P32, P33, P34, P35, P36

[2] = tested on: Plutella xylostella (Diamondback Moth); experiment: Example B14: Plutella xylostella, artificial diet in 96-well plates, eggs; settings: 216 h, application rate of 500 ppm, 9 days after infestation
Procedure: Example B14: Plutella xylostella (Diamondback Moth)
96-well microtiter plates containing artificial diet were treated with aqueous test solutions, prepared from 10′000 ppm DMSO stock solutions, by a liquid handling robot. After drying, eggs (˜30 per well) were infested onto a netted lid which was suspended above the diet. The eggs hatch and L1 larvae move down to the diet. The samples were assessed for mortality 9 days after infestation.
The following compounds gave an effect of at least 80% average mortality at an application rate of 500 ppm: • P2, P3, P5, P6, P7, P9, P15, P16, P17, P18, P20, P22, P24, P25, P30, P31, P32, P33, P38.

[3] = tested on: Diabrotica balteata (Corn Root Worm); experiment: Example B1: Diabrotica balteata, maize sprouts sprayed, L2 larvae; settings: 96 h, application rate of 200 ppm, 4 days after infestation, in comparison to untreated samples, read-out: effect in at least one of the two categories (mortality or growth inhibition)
Procedure: Example B1: Diabrotica balteata (Corn Root Worm)
Maize sprouts placed onto an agar layer in 24-well microtiter plates were treated with aqueous test solutions prepared from 10′000 ppm DMSO stock solutions by spraying. After drying, the plates were infested with L2 larvae (6 to 10 per well). The samples were assessed for mortality and growth inhibition in comparison to untreated samples 4 days after infestation.
The following compounds gave an effect of at least 80% in at least one of the two categories (mortality or growth inhibition) at an application rate of 200 ppm: • P2, P3, P4, P5, P6, P7, P8, P14, P15, P16, P17, P18, P19, P20, P21, P22, P23, P24, P25, P27, P28, P29, P30, P31, P32, P33, P34, P35

[4] = tested on: Spodoptera littoralis (Egyptian Cotton Leaf Worm); experiment: Example B9: Spodoptera littoralis, cotton leaf discs sprayed, L1 larvae; settings: foliar, 72 h, application rate of 200 ppm, five L1 larvae, 3 days after infestation, in comparison to untreated samples, read-out: control in at least one of the categories (mortality, anti-feedant effect, or growth inhibition)
Procedure: Example B9: Spodoptera littoralis (Egyptian Cotton Leaf Worm)
Cotton leaf discs were placed onto agar in 24-well microtiter plates and sprayed with aqueous test solutions prepared from 10′000 ppm DMSO stock solutions. After drying the leaf discs were infested with five L1 larvae. The samples were assessed for mortality, anti-feeding effect, and growth inhibition in comparison to untreated samples 3 days after infestation. Control of Spodoptera littoralis by a test sample is given when at least one of the categories mortality, anti-feedant effect, and growth inhibition is higher than the untreated sample.

[5] = tested on: Myzus persicae (Green Peach Aphid); experiment: Example B13: Myzus persicae, sucrose solution under Parafilm, 96-well; settings: 120 h, application rate of 50 ppm, 5 days after infestation
Text: Example B13: Myzus persicae (Green Peach Aphid)
Test compounds prepared from 10′000 ppm DMSO stock solutions were applied by a liquid handling robot into 96-well microtiter plates and mixed with a sucrose solution. Parafilm was stretched over the 96-well microtiter plate and a plastic stencil with 96 holes was placed onto the plate. Aphids were sieved into the wells directly onto the Parafilm. The infested plates were closed with a gel blotting card and a second plastic stencil and then turned upside down. The samples were assessed for mortality 5 days after infestation.

[6] = tested on: Thrips tabaci (Onion thrips); experiment: Example B12: Thrips tabaci feeding/contact activity, sunflower leaf discs; settings: foliar, 144 h, application rate of 200 ppm, thrips population of mixed ages, 6 days after infestation
Procedure: Example B12: Thrips tabaci (Onion thrips): Feeding/Contact Activity
(§1) Sunflower leaf discs were placed on agar in 24-well microtiter plates and sprayed with aqueous test solutions prepared from 10′000 ppm DMSO stock solutions. After drying the leaf discs were infested with a thrips population of mixed ages. The samples were assessed for mortality 6 days after infestation.

[7] = tested on: Euschistus heros (Neotropical Brown Stink Bug); experiment: Example B2: Euschistus heros, soybean leaves sprayed, N2 nymphs; settings: 120 h, application rate of 200 ppm, 5 days after infestation, in comparison to untreated samples, read-out: effect in at least one of the two categories (mortality or growth inhibition)
Procedure: Example B2: Euschistus heros (Neotropical Brown Stink Bug)
Soybean leaves on agar in 24-well microtiter plates were sprayed with aqueous test solutions prepared from 10′000 ppm DMSO stock solutions. After drying the leaves were infested with N2 nymphs. The samples were assessed for mortality and growth inhibition in comparison to untreated samples 5 days after infestation.
The following compounds gave an effect of at least 80% in at least one of the two categories (mortality or growth inhibition) at an application rate of 200 ppm: • P1, P2, P3, P7, P11, P12, P16, P17, P18, P22, P25, P29, P32, P33, P37, P38

[8] = tested on: Myzus persicae (Green Peach Aphid); experiment: Example B6: Myzus persicae feeding/contact activity, sunflower leaf discs; settings: foliar, 144 h, application rate of 200 ppm, aphid population of mixed ages, 6 days after infestation
Procedure: Example B6: Myzus persicae (Green Peach Aphid): Feeding/Contact Activity
Sunflower leaf discs were placed onto agar in a 24-well microtiter plate and sprayed with aqueous test solutions prepared from 10′000 ppm DMSO stock solutions. After drying, the leaf discs were infested with an aphid population of mixed ages. The samples were assessed for mortality 6 days after infestation.

[9] = tested on: Myzus persicae (Green Peach Aphid); experiment: Example B8: Myzus persicae intrinsic activity, sucrose solution under Parafilm, 24-well; settings: 120 h, test rate of 12 ppm, 5 days after infestation
Text: Example B8: Myzus persicae (Green Peach Aphid): Intrinsic Activity
Test compounds prepared from 10′000 ppm DMSO stock solutions were applied by pipette into 24-well microtiter plates and mixed with sucrose solution. The plates were closed with a stretched Parafilm. A plastic stencil with 24 holes was placed onto the plate and infested pea seedlings were placed directly on the Parafilm. The infested plate was closed with a gel blotting paper and another plastic stencil and then turned upside down. The samples were assessed for mortality 5 days after infestation.

[10] = tested on: Frankliniella occidentalis (Western Flower Thrips); experiment: Example B3: Frankliniella occidentalis feeding/contact activity, sunflower leaf discs; settings: foliar, 168 h, application rate of 200 ppm, population of mixed ages, 7 days after infestation
Procedure: Example B3: Frankliniella occidentalis (Western Flower Thrips):Feeding/Contact Activity
as §1, with “[…]” for “10′000 ppm”, “Frankliniella” for “thrips”, “7” for “6”

[11] = tested on: Myzus persicae (Green Peach Aphid); experiment: Example B7: Myzus persicae systemic activity, pea seedling roots in test solution; settings: 144 h, test rate of 24 ppm, 6 days after placing seedlings into test solutions
Procedure: Example B7: Myzus persicae (Green Peach Aphid): Systemic Activity
Roots of pea seedlings infested with an aphid population of mixed ages were placed directly into aqueous test solutions prepared from 10′000 DMSO stock solutions. The samples were assessed for mortality 6 days after placing seedlings into test solutions.

[12] = tested on: Chilo suppressalis (Striped Rice Stemborer); experiment: Example B4: Chilo suppressalis, artificial diet, L2 larvae; settings: 144 h, application rate of 200 ppm, 6 days after infestation, in comparison to untreated samples, read-out: control in at least one of the categories (mortality, anti-feedant effect, or growth inhibition)
Procedure: Example B4: Chilo suppressalis (Striped Rice Stemborer)
24-well microtiter plates with artificial diet were treated with aqueous test solutions prepared from 10′000 ppm DMSO stock solutions by pipetting. After drying, the plates were infested with L2 larvae (6-8 per well). The samples were assessed for mortality, anti-feeding effect, and growth inhibition in comparison to untreated samples 6 days after infestation. Control of Chilo suppressalis by a test sample is given when at least one of the categories mortality, anti-feedant effect, and growth inhibition is higher than the untreated sample.

CC(c1nc(I)nn1-c1ncccn1)N(CC1CC1)C(=O)c1cc(C(F)(F)F)cc(C(F)(F)F)c1 (stereo not shown) [Compound P5, N-(cyclopropylmethyl)-N-[1-(5-iodo-2-pyrimidin-2-yl-1,2,4-triazol-3-yl)ethyl]-3,5-bis(trifluoromethyl) benzamide]
≥ 80%: percent effect (mortality or growth inhibition) at 200 ppm [1] | mortality at 500 ppm [2] | percent effect (mortality or growth inhibition) at 200 ppm [3] | percent control (mortality, anti-feedant effect or growth inhibition) at 200 ppm [4] | mortality at 50 ppm [5] | mortality at 200 ppm [6]

CC(c1nc(N)nn1-c1ncccn1)N(C)C(=O)c1cc(C(F)(F)F)cc(C(F)(F)F)c1 (stereo not shown) [Compound P7, N-[1-(5-amino-2-pyrimidin-2-yl-1,2,4-triazol-3-yl)ethyl]-N-methyl-3,5-bis(trifluoromethyl)benzamide]
≥ 80%: percent effect (mortality or growth inhibition) at 200 ppm [7] | percent effect (mortality or growth inhibition) at 200 ppm [1] | mortality at 200 ppm [8] | mortality at 500 ppm [2] | percent effect (mortality or growth inhibition) at 200 ppm [3] | percent control (mortality, anti-feedant effect or growth inhibition) at 200 ppm [4] | mortality at 12 ppm [9] | mortality at 50 ppm [5] | mortality at 200 ppm [6]

CNC(=O)c1nc(C(C)N(C)C(=O)c2cc(C(F)(F)F)cc(C(F)(F)F)c2)n(-c2ncccn2)n1 (stereo not shown) [Compound P12, 5-[1-[[3.5-bis(trifluoromethyl)benzoyl]-methyl-amino]ethyl]-N-methyl-1-pyrimidin-2-yl-1,2,4-triazole-3-carboxamide]
≥ 80%: mortality at 200 ppm [10] | percent effect (mortality or growth inhibition) at 200 ppm [7] | mortality at 24 ppm [11] | mortality at 200 ppm [8] | mortality at 12 ppm [9] | mortality at 50 ppm [5] | percent control (mortality, anti-feedant effect or growth inhibition) at 200 ppm [12]

CC(c1nc(N(C)C)nn1-c1ncccn1)N(C)C(=O)c1cc(C(F)(F)F)cc(C(F)(F)F)c1 (stereo not shown) [Compound P16, N-[1-[5-(dimethylamino)-2-pyrimidin-2-yl-1,2,4-triazol-3-yl]ethyl]-N-methyl-3,5-bis(trifluoromethyl) benzamide]
≥ 80%: mortality at 200 ppm [10] | percent effect (mortality or growth inhibition) at 200 ppm [7] | percent effect (mortality or growth inhibition) at 200 ppm [1] | mortality at 24 ppm [11] | mortality at 200 ppm [8] | mortality at 500 ppm [2] | percent effect (mortality or growth inhibition) at 200 ppm [3] | percent control (mortality, anti-feedant effect or growth inhibition) at 200 ppm [4] | mortality at 12 ppm [9] | mortality at 50 ppm [5]

CNc1nc(C(C)N(C)C(=O)c2cc(C(F)(F)F)cc(C(F)(F)F)c2)n(-c2ncccn2)n1 (stereo not shown) [Compound P18, N-methyl-N-[1-[5-(methylamino)-2-pyrimidin-2-yl-1,2,4-triazol-3-yl]ethyl]-3,5-bis(trifluoromethyl) benzamide]
≥ 80%: percent effect (mortality or growth inhibition) at 200 ppm [7] | percent effect (mortality or growth inhibition) at 200 ppm [1] | mortality at 200 ppm [8] | mortality at 500 ppm [2] | percent effect (mortality or growth inhibition) at 200 ppm [3] | percent control (mortality, anti-feedant effect or growth inhibition) at 200 ppm [4] | mortality at 12 ppm [9] | mortality at 50 ppm [5] | mortality at 200 ppm [6]

CC(NC(=O)c1cc(C(F)(F)F)cc(C(F)(F)F)c1)c1nc(S(C)(=O)=O)nn1-c1ncccn1 (stereo not shown) [Compound P21, N-[1-(5-methylsulfonyl-2-pyrimidin-2-yl-1,2,4-triazol-3-yl)ethyl]-3,5-bis(trifluoromethyl) benzamide]
≥ 80%: percent effect (mortality or growth inhibition) at 200 ppm [1] | mortality at 24 ppm [11] | mortality at 200 ppm [8] | percent effect (mortality or growth inhibition) at 200 ppm [3] | percent control (mortality, anti-feedant effect or growth inhibition) at 200 ppm [4] | mortality at 12 ppm [9] | mortality at 50 ppm [5] | percent control (mortality, anti-feedant effect or growth inhibition) at 200 ppm [12]

CC(c1nc(N=C(c2ccccc2)c2ccccc2)nn1-c1ncccn1)N(C)C(=O)c1cc(C(F)(F)F)cc(C(F)(F)F)c1 (stereo not shown) [Compound P22, N-[1-[5-(benzhydrylideneamino)-2-pyrimidin-2-yl-1,2,4-triazol-3-yl]ethyl]-N-methyl-3,5-bis(trifluoromethyl)benzamide]
≥ 80%: percent effect (mortality or growth inhibition) at 200 ppm [7] | percent effect (mortality or growth inhibition) at 200 ppm [1] | mortality at 200 ppm [8] | mortality at 500 ppm [2] | percent effect (mortality or growth inhibition) at 200 ppm [3] | percent control (mortality, anti-feedant effect or growth inhibition) at 200 ppm [4] | mortality at 12 ppm [9] | mortality at 50 ppm [5] | mortality at 200 ppm [6]
